Measured values taken from paper PMC12521441 (Frontiers in Cellular and Infection Microbiology, 2025).

Legend:
[1] = biological target: TBEV helicase (Tick-borne encephalitis virus, UniProt Q01299); assay: biochemical; type: binding
[2] = biological target: T1, JEV helicase (Japanese encephalitis virus, UniProt P32886); assay: Isothermal titration calorimetry, JEV helicase; type: binding; conditions: ITC, 16°C
T1 sequence (P32886 1676-2123 limits assumed): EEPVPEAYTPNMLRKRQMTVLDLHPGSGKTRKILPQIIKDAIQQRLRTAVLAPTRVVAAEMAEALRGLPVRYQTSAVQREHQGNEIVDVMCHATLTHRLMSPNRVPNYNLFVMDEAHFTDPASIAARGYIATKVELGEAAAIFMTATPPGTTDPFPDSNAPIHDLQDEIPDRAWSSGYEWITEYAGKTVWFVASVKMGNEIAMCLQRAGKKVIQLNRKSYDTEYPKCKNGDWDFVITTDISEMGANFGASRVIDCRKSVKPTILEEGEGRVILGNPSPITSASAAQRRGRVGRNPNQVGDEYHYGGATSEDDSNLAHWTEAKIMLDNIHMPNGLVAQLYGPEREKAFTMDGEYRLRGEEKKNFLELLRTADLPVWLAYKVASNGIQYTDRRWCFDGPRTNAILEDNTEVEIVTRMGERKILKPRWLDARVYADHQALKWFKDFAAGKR

[3] = biological target: YFV helicase (Yellow fever virus, UniProt P03314); assay: biochemical; type: binding
Sequence of YFV helicase (P03314 1660-2107 limits assumed): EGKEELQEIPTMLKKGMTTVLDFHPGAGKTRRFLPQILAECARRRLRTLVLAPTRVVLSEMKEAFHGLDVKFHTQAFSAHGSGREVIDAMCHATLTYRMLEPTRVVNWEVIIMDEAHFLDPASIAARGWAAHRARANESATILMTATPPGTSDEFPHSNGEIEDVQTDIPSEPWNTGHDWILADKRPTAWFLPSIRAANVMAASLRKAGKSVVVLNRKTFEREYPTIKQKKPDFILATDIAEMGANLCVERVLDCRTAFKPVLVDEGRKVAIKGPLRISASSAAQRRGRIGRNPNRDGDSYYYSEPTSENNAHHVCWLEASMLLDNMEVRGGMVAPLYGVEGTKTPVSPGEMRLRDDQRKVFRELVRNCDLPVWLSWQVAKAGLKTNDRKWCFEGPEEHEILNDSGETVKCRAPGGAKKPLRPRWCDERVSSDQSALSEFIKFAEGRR

[4] = biological target: DENV2 helicase (Dengue virus type 2, UniProt P29990); assay: Isothermal titration calorimetry, DENV2 helicase; type: binding; conditions: ITC, 16°C
Sequence of DENV2 helicase (P29990 1646-2093 limits assumed): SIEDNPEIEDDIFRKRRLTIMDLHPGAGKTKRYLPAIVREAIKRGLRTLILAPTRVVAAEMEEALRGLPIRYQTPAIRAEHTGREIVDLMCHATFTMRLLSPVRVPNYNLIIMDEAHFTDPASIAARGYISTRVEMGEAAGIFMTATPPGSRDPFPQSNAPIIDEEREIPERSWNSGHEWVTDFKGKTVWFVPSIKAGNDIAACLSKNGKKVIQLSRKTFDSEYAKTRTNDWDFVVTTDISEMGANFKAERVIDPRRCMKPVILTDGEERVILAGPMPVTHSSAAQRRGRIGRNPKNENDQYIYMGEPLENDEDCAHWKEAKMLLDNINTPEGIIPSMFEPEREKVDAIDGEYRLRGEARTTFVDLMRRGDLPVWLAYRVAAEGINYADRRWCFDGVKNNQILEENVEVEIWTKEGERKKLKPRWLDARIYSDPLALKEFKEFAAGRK

[5] = biological target: T2, ZIKV helicase (Zika virus, UniProt Q32ZE1); assay: Isothermal titration calorimetry, ZIKV helicase; type: binding; conditions: ITC, 16°C
T2 sequence (Q32ZE1 1670-2115 limits assumed): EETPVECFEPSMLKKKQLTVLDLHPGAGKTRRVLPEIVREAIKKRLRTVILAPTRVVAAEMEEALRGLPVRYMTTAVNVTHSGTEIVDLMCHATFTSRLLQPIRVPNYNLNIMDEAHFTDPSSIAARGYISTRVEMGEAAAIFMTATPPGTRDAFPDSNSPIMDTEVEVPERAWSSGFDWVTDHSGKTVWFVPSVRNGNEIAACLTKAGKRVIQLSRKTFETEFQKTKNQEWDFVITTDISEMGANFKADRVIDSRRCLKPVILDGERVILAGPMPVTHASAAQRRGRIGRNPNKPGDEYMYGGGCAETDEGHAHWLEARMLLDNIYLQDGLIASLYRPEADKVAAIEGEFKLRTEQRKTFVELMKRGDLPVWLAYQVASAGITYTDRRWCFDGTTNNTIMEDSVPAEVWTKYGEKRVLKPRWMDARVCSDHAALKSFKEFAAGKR

[6] = rats, radiolabeled Zafirlukast; ref Zeng et al., 2020; cited from earlier work
[7] = biological target: DENV4 helicase (Dengue virus type 4, UniProt Q2YHF0); assay: Isothermal titration calorimetry, DENV4 helicase; type: binding; conditions: ITC
Sequence of DENV4 helicase (Q2YHF0 1645-2092 limits assumed): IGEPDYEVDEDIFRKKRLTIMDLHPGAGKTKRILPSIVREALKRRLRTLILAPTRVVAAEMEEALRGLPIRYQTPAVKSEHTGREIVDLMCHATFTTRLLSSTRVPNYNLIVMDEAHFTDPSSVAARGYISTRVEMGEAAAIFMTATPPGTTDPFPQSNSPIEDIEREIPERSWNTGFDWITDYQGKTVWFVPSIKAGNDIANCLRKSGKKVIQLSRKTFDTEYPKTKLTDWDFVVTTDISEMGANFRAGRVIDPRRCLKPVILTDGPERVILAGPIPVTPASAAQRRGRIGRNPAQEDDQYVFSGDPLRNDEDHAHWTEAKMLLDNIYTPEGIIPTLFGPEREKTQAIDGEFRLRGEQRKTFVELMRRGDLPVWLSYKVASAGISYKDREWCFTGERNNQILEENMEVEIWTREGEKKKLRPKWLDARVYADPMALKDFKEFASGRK

[8] = at higher doses, preclinical models; ref Finnerty et al., 1992; cited from earlier work

Sequence of TBEV helicase (Q01299 1666-2110 limits assumed): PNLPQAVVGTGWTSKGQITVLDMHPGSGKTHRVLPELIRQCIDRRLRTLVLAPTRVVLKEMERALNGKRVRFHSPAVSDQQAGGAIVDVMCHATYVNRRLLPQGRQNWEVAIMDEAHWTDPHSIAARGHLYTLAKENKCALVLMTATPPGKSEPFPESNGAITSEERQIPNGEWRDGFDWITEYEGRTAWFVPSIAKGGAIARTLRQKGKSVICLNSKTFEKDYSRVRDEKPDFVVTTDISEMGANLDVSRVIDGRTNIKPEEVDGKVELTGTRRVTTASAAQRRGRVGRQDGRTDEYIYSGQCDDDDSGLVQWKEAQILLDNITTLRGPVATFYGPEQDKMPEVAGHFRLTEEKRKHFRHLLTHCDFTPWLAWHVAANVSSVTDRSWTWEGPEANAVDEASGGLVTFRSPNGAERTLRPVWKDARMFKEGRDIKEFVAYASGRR

Structure (SMILES): COc1cc(C(=O)NS(=O)(=O)c2ccccc2C)ccc1Cc1cn(C)c2ccc(NC(=O)OC3CCCC3)cc12 [Zafirlukast]
- Kd [1]: 361 µM
- Kd [2]: 199 µM
- Kd [3]: 6.59 µM
- Kd [4]: 2730 nM
- Kd [5]: 13.9 µM
- Distribution across the blood-brain barrier [6]: minimal distribution across the blood–brain barrier
- Kd [7]: 1570 nM
- Tumor incidence [8]: increased incidence of hepatocellular tumors, histiocytic sarcoma, and bladder cancer
